Patent US10864190B2 (CeMM—Forschungszentrum für Molekulare Medizin GmbH, priority 2015, dated 2020)

How the values were obtained:
LNCaP cells = experiment: Dose-response matrix, viability of LNCaP cells; type: cell-based; conditions: 3 days, antiandrogen in combination with phenprocoumon
Description: LNCaP (ATCC, Manassas, Va., USA, CRL-1740) and PC-3 (ATCC, CRL-1435) cells were grown in RPMI-1640 supplemented with 10% fetal bovine serum (Thermo Fisher Scientific) and 1% penicillin/streptomycin (Sigma-Aldrich). For steroid-deprived experiments, LNCaP cells were cultured in RPMI-1640 supplemented with 10% charcoal stripped fetal bovine serum (Thermo Fisher Scientific) and 1% penicillin/streptomycin (Sigma-Aldrich).
CLOUD drugs and combinations thereof were transferred on 384-well plates using an acoustic liquid handler (Echo, Labcyte, Sunnyvale, Calif., USA) and 5,000 cells/well were dispensed on top of the drugs using a dispenser (Thermo Fisher Scientific) for a total of 50 μl/well. Viability was measured after 72 hours using CellTiter-Glo (Promega, Fitchburg, Wis., USA) in a multilabel plate reader (EnVision, PekinElmer, Waltham, Mass., USA). Signal was then normalized to negative (DMSO) and positive (10 μM dasatinib) controls and set between 0 and 100. […] Drug combinations were analyzed according to the Bliss independence model (Bliss C I, Ann Appl Biol, 1939, 26:585-615). Briefly, the effect of the combination of drug A and drug B can be predicted to be C=A+B−A*B where A and B are the effects of the single drugs expressed as fractional inhibition between 0 and 1. A deviation of the experimental value from the Bliss prediction was calculated. […]

androgen receptor (AR) [1] = biological target: T1, androgen receptor (AR) (Homo sapiens, UniProt P10275, T878A); experiment: Cellular thermal shift assay (CETSA); type: binding
T1 construct: AR immunoprecipitated from LNCaP cells treated with either DMSO or phenprocoumon; host or cells: LNCaP
Description: LNCaP cells were treated with DMSO or 35 μM PPC for 2 days and then harvested maintaining a constant concentration of PPC in all subsequent handling buffers. Otherwise, lysates were directly treated with the drug as already described (Martinez Molina D et al., Science, 2013, 341:84-7).

γ-carboxylated AR = experiment: γ-carboxylation in LNCaP cells (western blotting, immunoprecipitation with anti-γ-carboxyglutamyl antibody); type: cell-based; conditions: LNCaP lysates, increasing amounts of phenprocoumon
Description: Cells were lysed in RIPA buffer supplemented with a cocktail of protease inhibitors (Roche). Lysates were resolved by sodium dodecyl sulfate-polyacrylamide gel electrophoresis. AR (#5153) and GAPDH (#5174) antibodies were purchased from Cell Signaling Technology (Danvers, Mass., USA). αTUB antibody (ab7291) was purchased from Abcam (Cambridge, UK). Anti-γ-carboxyglutamyl antibody (REF 3570) was purchased from Sekisui Diagnostics (Lexington, Mass., USA).
(§1) Cells were lysed in IP buffer (50 mM Tris pH 8, 150 mM NaCl, 1% Igepal) supplemented with a cocktail of protease inhibitors (Roche). Immunoprecipitations were performed at 4° C. and using Dynabeads Protein G (Thermo Fisher Scientific). Lysates were precleared with beads for 30 minutes, incubated with antibodies overnight (1 μg antibody was used for 50 μg protein) and immunoprecipitated for 2 hours. After washing, immunoprecipitated proteins were eluted by either boiling in Laemmli buffer or using 50 mM glycine pH 2.8.

[2] = test system: AR signaling canonical targets (KLK3, TMPRSS2, KLK2) and AR; experiment: RT-qPCR of AR and canonical targets of AR signaling in LNCaP cells; type: cell-based; conditions: 24 hours
Description: The RNeasy kit (Qiagen, Venlo, Netherlands) was used to extract RNA. cDNA was produced and reverse transcription quantitative polymerase chain reaction performed using the High Capacity cDNA Reverse Transcription kit and the SYBR Green Master mix from Thermo Fisher Scientific. Reverse transcription quantitative polymerase chain reaction was performed on a LightCycler 480 (Roche, Basel, Switzerland).

androgen receptor (AR) [3] = experiment: 2D difference gel electrophoresis (DIGE) of immunoprecipitated AR; type: cell-based; conditions: AR immunoprecipitated from LNCaP cells, versus DMSO
Description: as §1
IP lysates eluted with glycine buffer were used for 2D difference gel electrophoresis (DIGE). […] Rehydration and isoelectric focusing on IPG strips (ReadyStrip IPG Strips, 11 cm, pH 3-10, non-linear (BioRad)) was followed by SDS-PAGE on gradient gels (Criterion, Any kD, BioRad) and detection with a Typhoon fluorescence scanner at the recommended excitation and emission wavelengths for G-Dye200 and G. Images were analyzed using Delta2D 4.3 software (Decodon, Greifswald, Germany).
The inventors then assessed whether phenprocoumon treatment could otherwise modify AR and analyzed the migration pattern of the protein by means of 2D gel electrophoresis (see FIG. 13H).

T1 sequence (P10275 whole entry T878A): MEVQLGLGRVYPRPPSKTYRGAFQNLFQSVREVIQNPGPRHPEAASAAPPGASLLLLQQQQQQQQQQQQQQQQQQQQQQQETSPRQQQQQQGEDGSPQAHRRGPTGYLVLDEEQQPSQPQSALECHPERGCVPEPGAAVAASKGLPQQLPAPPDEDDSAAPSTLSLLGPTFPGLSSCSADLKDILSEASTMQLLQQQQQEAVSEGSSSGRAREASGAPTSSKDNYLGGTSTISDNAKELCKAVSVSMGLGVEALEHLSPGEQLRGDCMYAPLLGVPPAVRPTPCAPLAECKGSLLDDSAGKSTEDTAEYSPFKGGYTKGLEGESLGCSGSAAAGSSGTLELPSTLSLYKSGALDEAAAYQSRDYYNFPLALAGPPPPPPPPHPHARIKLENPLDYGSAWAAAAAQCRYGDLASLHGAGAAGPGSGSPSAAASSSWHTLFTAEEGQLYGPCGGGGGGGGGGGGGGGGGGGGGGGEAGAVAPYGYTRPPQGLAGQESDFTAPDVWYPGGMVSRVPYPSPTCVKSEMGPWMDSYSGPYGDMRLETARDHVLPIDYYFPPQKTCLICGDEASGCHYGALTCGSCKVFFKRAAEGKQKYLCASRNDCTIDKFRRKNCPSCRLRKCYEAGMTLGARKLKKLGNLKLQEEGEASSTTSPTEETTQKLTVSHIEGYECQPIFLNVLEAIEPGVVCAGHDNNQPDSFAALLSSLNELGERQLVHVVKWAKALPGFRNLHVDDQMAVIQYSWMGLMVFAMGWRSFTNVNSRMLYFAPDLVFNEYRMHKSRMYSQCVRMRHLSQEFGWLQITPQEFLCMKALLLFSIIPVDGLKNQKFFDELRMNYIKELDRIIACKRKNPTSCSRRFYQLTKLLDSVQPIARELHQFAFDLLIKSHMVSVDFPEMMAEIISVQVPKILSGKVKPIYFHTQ

Compound | synergy in combination with phenprocoumon (LNCaP cells) | thermal stability of AR (androgen receptor (AR) [1]; LNCaP cell lysates treated with 100 μM PPC for 30 min, no pretreatment) | thermal stability of AR (androgen receptor (AR) [1]; LNCaP cells treated with 35 μM PPC for 2 days) | amount of AR immunoprecipitated with γ-carboxylation-specific antibody (γ-carboxylated AR) | effect on induction of AR signaling (KLK3, KLK2) by R1881 ([2]; 10 nM R1881 ± 35 μM PPC) | expression of AR signaling canonical targets KLK3, TMPRSS2 and KLK2 ([2]; steroid-deprived medium, 15 μM flutamide, 35 μM PPC) | isoelectric point of AR (migration pattern) (androgen receptor (AR) [3])
CNC(=O)c1ccc(N2C(=S)N(c3ccc(C#N)c(C(F)(F)F)c3)C(=O)C2(C)C)cc1F [enzalutamide] | synergistic interaction with phenprocoumon, albeit to a lower extent compared to flutamide |  |  |  |  |  | 
CC1(C)NC(=O)N(c2ccc([N+](=O)[O-])c(C(F)(F)F)c2)C1=O [nilutamide] | synergistic interaction with phenprocoumon, albeit to a lower extent compared to flutamide |  |  |  |  |  | 
CCC(c1ccccc1)c1c(O)c2ccccc2oc1=O (centres unmarked) [phenprocoumon] |  | did not stabilize AR | affects the thermal stability of AR | reduced the amount of immunopreciptated protein in a dose-dependent manner | did not interfere with the induction of AR signaling | did not affect the expression of these genes | migrated at a higher isoelectric point
